The text below walks through data of patent US20210106703A1, “RADIOIMMUNOCONJUGATES IN COMBINATION WITH OTHER DRUGS AS TREATMENT AGAINST NHL” (Nordic Nanovector ASA, priority 2017, published 2021).

Like-named read-outs stand apart in the source and are kept apart here.

Assay [1] concerns U2932 cells. Nature of the assay: Alamar Blue cytotoxicity study. The note with it: for IC50: Homo sapiens; for Combination Index (Chou-Talalay): 120 h. Format: cell-based, human. On the procedure: Cells were treated with either Humalutin, olaparib or a combination of both and seeded into 96 well-plates. At each time point after treatment, cells were incubated with Alamar Blue (Thermo Fisher, DALL1100) for 4 hours and fluorescence measurements were performed using a multiplate reader Fluoroskan ascent FL to assess cell proliferation and viability. All experiments were done in duplicates using 2 samples in each experiment. Data were normalized to the untreated controls.
(§1) Cells were incubated with 0.25, 0.5, 1, 2.5 or 5 μg/ml of Humalutin in cell culture flasks and incubated at 37° C./5% CO2. After 18-20 hours cells were washed and resuspended in fresh medium. Cell bound activity after washing was measured using a calibrated gamma detector (Cobra II auto-gamma detector, Packard Instrument Company, Meriden, Conn., USA). Cell concentration and viability was also measured after washing using Guava ViaCount Cell Dispersal Reagent for Flow Cytometry (Merck GaA, Darmstadt, Germany) and measured in a Guava EasyCyte 12HT (Merck KGaA, Darmstadt, Germany) to determine how well the cells survived the incubation. Cells were seeded in 96 well plates.
Cells were seeded in 96 well plates pre-coated with from 1 to 100 μM olaparib in 0.2 ml medium and incubated at 37° C./5% CO2 for 72 hours before the cytotoxic effect was measured using alamar blue cell viability assay.
Cells were incubated with either 0, 0.5 μg/ml or 1 μg/ml Humalutin and the same procedure as described before for treatment with humalutin alone and olaparib alone was followed. Concentrations of olaparib used were between 1 and 100 μM.
The Chou-Talalay model was used for synergy calculations using the Compusyn software. R (goodness of fit) was calculated for the individual treatments and should be over 0.90 in in vitro culture experiments in order to use the calculated combination index (CI). The CI is an indication of synergy: 0-0.9 is considered synergy. Synergysm grading was used as described in WO2006004917A2. […]
as §1, with “viability were” for “viability was”, “plates. Alamar blue viability measurements were performed 120 h after seeding.” for “plates.”
Cells were incubated with either 0 (control), 0.5 μg/ml or 1 μg/ml Humalutin for 18 to 20 hours. Cells were then washed and resuspended in fresh medium.
(In general: Resazurin is reduced to fluorescent resorufin, in cell work by metabolically active cells.)

The test system of assay [2] is Ramos cells. The experiment in a line: Proliferation study with Wee-1/Myt-1 inhibitors and ^177Lu-lilotomab. Format: cell-based, human. The settings on record: inhibitor 1 μM + ^177Lu-lilotomab 6 MBq/mL (RIT) for 18 h, 6 days after start. On the procedure:
(§2) Cells were treated for 18 h with 1 μM of the selective Wee-1 kinase inhibitor MK-1775 (Selleckchem, Houston, USA) or of the dual Wee-1/Myt-1 inhibitor PD-166285 (EMD Merck Millipore/Calbiochem, Molsheim, France) alone or in combination with 6 MBq/mL, 2 MBq/mL and 0.5 MB/mL of ^177Lu-lilotomab for Ramos, Rec-1 and DOHH2 cells respectively. At different times after start of incubation, proteins were extracted to measure the CDK1 phosphorylation levels, in parallel, proliferation was determined and at 18 h and 24 h after start of incubation, the percentage of cells in G2/M was assessed (experiments were performed three time except the cell cycle analysis).
(§3) The activity used for the treatment with ^177Lu-lilotomab was chosen to decrease the proliferation to about 50% for the three cell lines compared with non-treated cells.
(§4) Inhibition of G2/M cell cycle arrest radiosensitises radioresistant Ramos model. The Bliss independence mathematical model was next used to investigate the role of MK-1775 or PD-166285 on the response to ^177Lu-lilotomab. A theoretical therapeutic efficacy was calculated for the two combinations (MK-1775 or PD-166285) in the three cell lines. And the comparison between the experimental and the theoretical curves was done.
(§5) Theoretical efficacyRIT+inhib=EfficacyRIT+Efficacyinhib−(EfficacyRIT×Efficacyinhib)

Assay [3] concerns Rec-1 cells. The assay is described as above. The settings on record: Rec-1, inhibitor 1 μM + ^177Lu-lilotomab 2 MBq/mL for 18 h, versus either alone. Format: cell-based, human. The method, then:
as §2, §3, §4, §5

In assay [4] the test system is CD3-/CD20+ cells from biopsies of patients with DLBCL or FL. The note with it: 4 patient biopsies, 18 h exposure, day 4. On the procedure: Frozen human biopsies from patients with DLBCL or FL were obtained from CHU de Montpellier Plateforme CRB/Hemodiag. Typically, cells were defrosted and grown at 0.5×10^6 cells/mL in 12-well plates at 37° C. in a humidified atmosphere of 95% air/5% CO2. Culture medium consisted of RPMI medium supplemented with 20% heat-inactivated fetal bovine serum, antibiotics ([…] penicillin and 100 μg/ml streptomycin), 50 ng/mL CD40L (His tagged; R&D system) and 5 μg/mL anti-his-tag antibody (R&D system, Abingdon, UK). After 5 h, they were treated with increasing amount of ^177Lu-lilotomab (0 to 6 MBq/mL) combined or not with MK-1775 or PD-166285 (1 μM) for 18 h. At the end of incubation, 50% of cells were analyzed by flow cytometry and the remaining cells were collected, centrifuged and washed twice with medium before being seeded in 12-well plates for 3 days more. After 3 days, cells were collected and analyzed by flow cytometry. Live/Dead fixable dead cell stain (Fisher scientific), anti-CD45, CD3, CD19, CD20 and CD10 mAbs (BD Pharmigen, Le pont de Claix, France) and anti-Kappa mAb (DAKO, Les Ulis, France) were used and analyzed by flow cytometry to determine quantity and proportion of tumor and non-tumor cells alive.

With `CC1(C)CCC(CN2CCN(c3ccc(C(=O)NS(=O)(=O)c4ccc(NCC5CCOCC5)c([N+](=O)[O-])c4)c(Oc4cnc5[nH]ccc5c4)c3)CC2)=C(c2ccc(Cl)cc2)C1` [venetoclax], the IC50 in assay [1] (read-out: IC50 at 120 h, U2932, 120 h incubation after seeding) is 1140 nM; in assay [1] (U2932, 72 h incubation after seeding, read-out: IC50), 4150 nM. For the same molecule, the “Combination Index (Chou-Talalay)” value is listed as 0.50 in assay [1] (U2932, drug 10 μM + Humalutin 0.5 μg/ml); 0.09 in assay [1] (U2932, drug 10 μM + Humalutin 1 μg/ml); 0.91 in assay [1] (U2932, drug 40 μM + Humalutin 0.5 μg/ml); 0.23 in assay [1] (U2932, drug 40 μM + Humalutin 1 μg/ml); 0.54 in assay [1] (U2932, drug 80 μM + Humalutin 0.5 μg/ml); 0.12 in assay [1] (U2932, drug 80 μM + Humalutin 1 μg/ml). Moreover, the “Combination Index (Chou-Talalay)” value in assay [1] (U2932, drug 100 μM + Humalutin 0.5 μg/ml) was found to be 0.49; in assay [1] (U2932, drug 100 μM + Humalutin 1 μg/ml), 0.07; in assay [1] (U2932, venetoclax 0.25 + Humalutin 0.5 μg/ml), 0.02; in assay [1] (U2932, venetoclax 0.25 + Humalutin 1 μg/ml), 0.12; in assay [1] (U2932, venetoclax 0.5 + Humalutin 0.5 μg/ml) it was 0.01; in assay [1] (U2932, venetoclax 0.5 + Humalutin 1 μg/ml) it was 0.10. Also, the “Combination Index (Chou-Talalay)” value was 0.03 in assay [1] (U2932, venetoclax 1 + Humalutin 0.5 μg/ml); 0.08 in assay [1] (U2932, venetoclax 1 + Humalutin 1 μg/ml); 0.03 in assay [1] (U2932, venetoclax 2.5 + Humalutin 0.5 μg/ml); 0.06 in assay [1] (U2932, venetoclax 2.5 + Humalutin 1 μg/ml).

Turning to `C=CCn1c(=O)c2cnc(Nc3ccc(N4CCN(C)CC4)cc3)nc2n1-c1cccc(C(C)(C)O)n1` [MK-1775], the “Proliferation (treated/untreated cells)” value in assay [2] was about 10%; in assay [3], “statistically reduced the proliferation”.

B1: Lutetium-177 [^177Lu]-lilotomab satetraxetan (conjugate, chains of the INN, looked up)
VH: EIQLQQSGPELVKPGASVKVSCKASGYSFTDYNMYWVKQSHGKSLEWIGYIDPYNGDTTYNQKFKGKATLTVDKSSSTAFIHLNSLTSEDSAVYYCARSPYGHYAMDYWGQGTSVTVSS
VL: DIVMTQSHKLLSTSVGDRVSITCKASQDVSTAVDWYQQKPGQSPKLLINWASTRHTGVPDRFTGSGSGTDYTLTISSMQAEDLALYYCRQHYSTPFTFGSGTKLEIK
modifications: 177Lu satetraxetan chelator conjugate
For B1, the “Proportion of tumor cells” value in assay [4] was “reduced the proportion of tumor cells”.

By IC50 is commonly meant the point on the concentration scale where inhibition reaches its midpoint.
